We go through 14 compounds from ChEMBL document CHEMBL3046456, “Anti-angiogenic/proliferative behavior of a 4-aryl-4H-chromene on blood vessels endothelial cells: A possible evidence on dual anti-tumor activity” (Med Chem Res, 2011).

Structures are written as SMILES. Calls of active or inactive are those of the source. The rule behind the calls is not given here.

The test system of data set [1] is HUVEC. Kind of data set: Antiproliferative activity against Homo sapiens (human) HUVEC cells at 3.11 to 124 uM after 3 days by cell counting analysis. In kind it is functional, cell-based.
In data set [2] the test system is HUVEC. Kind of data set: Cytotoxicity against Homo sapiens (human) HUVEC cells after 48 hr by trypan blue assay. In kind it is cell-based.
The test system of data set [3] is HUVEC. Kind of data set: Cytotoxicity against Homo sapiens (human) HUVEC cells after 48 hr by LDH assay. The class given is cell-based.
Data set [4] concerns the target 72 kDa type IV collagenase (Homo sapiens) (UniProt P08253). Kind of data set: Inhibition of MMP2 (unknown origin) at 37.32 uM after 16 hr by gelatin zymographic analysis.
In data set [5] the test system is HUVEC. Kind of data set: Antiangiogenic activity against Homo sapiens (human) HUVEC cells assessed as inhibition of capillary tube formation after 3 days by microscopic analysis. In kind it is functional, cell-based.
For data set [6], the system named is HUVEC. Kind of data set: Cytotoxicity against Homo sapiens (human) HUVEC cells up to 40 ug/ml after 48 hr by LDH assay. In kind it is cell-based.
Data set [7] concerns HUVEC. Kind of data set: Cytotoxicity against Homo sapiens (human) HUVEC cells up to 40 ug/ml after 48 hr by trypan blue assay. In kind it is cell-based.
For data set [8], the target named is Matrix metalloproteinase-9 (Homo sapiens) (UniProt P14780). Kind of data set: Inhibition of MMP9 (unknown origin) at 24.88 uM after 16 hr by gelatin zymographic analysis.
Chain of Matrix metalloproteinase-9 (Homo sapiens) (P14780 whole entry): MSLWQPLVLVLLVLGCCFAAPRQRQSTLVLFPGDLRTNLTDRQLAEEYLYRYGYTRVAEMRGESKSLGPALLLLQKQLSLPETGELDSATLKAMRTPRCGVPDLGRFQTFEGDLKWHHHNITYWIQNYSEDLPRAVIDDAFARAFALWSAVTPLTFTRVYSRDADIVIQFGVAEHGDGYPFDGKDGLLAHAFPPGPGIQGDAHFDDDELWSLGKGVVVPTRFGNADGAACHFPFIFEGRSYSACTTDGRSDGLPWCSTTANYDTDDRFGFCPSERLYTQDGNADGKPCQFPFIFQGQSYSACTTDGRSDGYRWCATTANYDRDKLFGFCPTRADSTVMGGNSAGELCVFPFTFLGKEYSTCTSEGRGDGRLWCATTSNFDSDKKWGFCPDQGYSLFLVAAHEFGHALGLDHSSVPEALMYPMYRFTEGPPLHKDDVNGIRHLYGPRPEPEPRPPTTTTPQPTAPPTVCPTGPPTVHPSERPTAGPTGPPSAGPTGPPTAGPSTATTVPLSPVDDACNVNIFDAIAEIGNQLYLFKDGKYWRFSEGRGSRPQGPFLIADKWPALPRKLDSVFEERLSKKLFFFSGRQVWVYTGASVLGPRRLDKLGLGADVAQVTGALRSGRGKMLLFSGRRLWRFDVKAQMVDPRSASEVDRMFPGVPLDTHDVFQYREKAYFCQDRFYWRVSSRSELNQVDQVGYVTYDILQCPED
Data set [9] relates to HUVEC. Kind of data set: Antiangiogenic activity against Homo sapiens (human) HUVEC cells assessed as inhibition of capillary tube formation at 1 ug/ml after 3 days by microscopic analysis. In kind it is functional, cell-based.
The test system of data set [10] is HUVEC. Kind of data set: Antiproliferative activity against Homo sapiens (human) HUVEC cells at 1 ug/ml after 3 days by cell counting analysis. In kind it is functional, cell-based.
For data set [11], the system named is HUVEC. Kind of data set: Antiproliferative activity against Homo sapiens (human) HUVEC cells after 3 days by cell counting analysis. In kind it is functional, cell-based.
In data set [12] the test system is HUVEC. Kind of data set: Antiproliferative activity against Homo sapiens (human) HUVEC cells at <10 ug/ml after 3 days by cell counting analysis. In kind it is functional, cell-based.
In data set [13] the target is Matrix metalloproteinase-9 (Homo sapiens) (UniProt P14780). Kind of data set: Inhibition of MMP9 (unknown origin) after 16 hr by gelatin zymographic analysis.

Chain of 72 kDa type IV collagenase (Homo sapiens) (P08253 110-660 limits assumed): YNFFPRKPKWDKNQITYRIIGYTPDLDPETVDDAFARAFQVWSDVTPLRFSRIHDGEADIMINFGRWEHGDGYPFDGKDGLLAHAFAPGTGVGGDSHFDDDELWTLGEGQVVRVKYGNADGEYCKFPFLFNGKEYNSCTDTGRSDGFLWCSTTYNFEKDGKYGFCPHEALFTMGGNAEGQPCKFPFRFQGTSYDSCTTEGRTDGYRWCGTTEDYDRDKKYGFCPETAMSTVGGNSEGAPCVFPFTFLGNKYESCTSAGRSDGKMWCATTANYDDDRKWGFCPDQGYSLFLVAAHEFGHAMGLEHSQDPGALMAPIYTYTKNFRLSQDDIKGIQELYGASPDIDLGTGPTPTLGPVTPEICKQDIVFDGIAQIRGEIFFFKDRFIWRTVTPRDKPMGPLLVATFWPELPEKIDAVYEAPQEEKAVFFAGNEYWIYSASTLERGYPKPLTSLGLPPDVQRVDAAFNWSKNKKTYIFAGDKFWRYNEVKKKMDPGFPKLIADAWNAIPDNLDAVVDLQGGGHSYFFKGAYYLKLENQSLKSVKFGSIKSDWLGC

Take `CCCOc1ccc2c(c1)OC/C(=C\c1ccc(O)c(O)c1)C2=O`: the result in the data set on HUVEC [1] was inactive. Further, the Activity result in the data set on HUVEC [2] and in the data set on HUVEC [3] was “Dose-dependent effect” each time.

In the case of `CN(C)c1ccc2c(c1)OC(N)=C(C#N)C2c1cccc([N+](=O)[O-])c1` (centres undefined), in the data set on HUVEC [1], the result was inactive. The Activity result in the data set with HUVEC [2] and with HUVEC [3] was “Dose-dependent effect” each time.

In the case of `COc1ccc2c(c1)OC/C(=C\c1ccc(O)cc1)C2=O`, the result in the data set on HUVEC [1] was inactive. Also, the Activity result in the data set on HUVEC [2] and in the data set on HUVEC [3] was “Dose-dependent effect” in each case.

As to `COc1ccc2c(c1)OC/C(=C\c1ccc(Cl)cc1)C2=O`, in the data set on HUVEC [1], the result was inactive. For the same compound, the Activity result in the data set with HUVEC [2] and with HUVEC [3] was “Dose-dependent effect” throughout.

In the case of `COc1ccc2c(c1)OC/C(=C\c1cc(OC)c(O)c(OC)c1)C2=O`, the outcome with HUVEC [1] was inactive. Moreover, the Activity result in the data set on HUVEC [2] and in the data set with HUVEC [3] was “Dose-dependent effect” in each case.

Turning to `COc1ccc2c(c1)OC/C(=C\c1ccc(OC)c(OC)c1)C2=O`, in the data set with HUVEC [1], the outcome was inactive. In addition, the Activity result in the data set with HUVEC [2] and with HUVEC [3] was “Dose-dependent effect” each time.

Take `COc1ccccc1C1C(C#N)=C(N)Oc2cc(N(C)C)ccc21` (centres undefined): the inhibition entry (in data set [4]; in data set [8]; in the data set with HUVEC [9]) was “Active” in each case. For the same compound, the inhibition result (in the data set on HUVEC [5]; in [13]) was “Dose-dependent effect” throughout. Moreover, the results for the Activity entry with HUVEC [6], in the data set with HUVEC [7] and with HUVEC [11] were “Non-toxic”, “Non-toxic” and “Dose-dependent effect”, respectively. For the same compound, the result in the data set on HUVEC [10] and in the data set on HUVEC [12] was Active.

In the case of `COc1ccc(/C=C2\COc3cc(OC)ccc3C2=O)cc1`, in the data set on HUVEC [1], the result was inactive. Further, the Activity entry in the data set with HUVEC [2] and in the data set on HUVEC [3] was “Dose-dependent effect” throughout.

`CN(C)c1ccc2c(c1)OC(N)=C(C#N)C2c1cccc(C(F)(F)F)c1` (centres undefined): in the data set with HUVEC [1], the result was inactive. In addition, the Activity result with HUVEC [2] and in the data set on HUVEC [3] was “Dose-dependent effect” throughout.

As to `COc1ccc2c(c1)OC/C(=C\c1ccc(C(F)(F)F)cc1)C2=O`, the outcome with HUVEC [1] was inactive. Also, the Activity entry in the data set on HUVEC [2] and with HUVEC [3] was “Dose-dependent effect” throughout.

Regarding `COc1ccc2c(c1)OC/C(=C\c1ccc(F)cc1)C2=O`, the outcome in the data set on HUVEC [1] was inactive. The Activity result with HUVEC [2] and in the data set on HUVEC [3] was “Dose-dependent effect” throughout.

With `COc1ccc2c(c1)OC/C(=C\c1ccc(O)c(O)c1)C2=O`, in the data set on HUVEC [1], the result was inactive. Further, the Activity result with HUVEC [2] and in the data set on HUVEC [3] was “Dose-dependent effect” each time.

Consider `COc1ccc2c(c1)OC/C(=C\c1ccccc1OC)C2=O`, for which the outcome in the data set on HUVEC [1] was inactive. The Activity result in the data set with HUVEC [2] and with HUVEC [3] was “Dose-dependent effect” in each case.

Take `COc1ccc2c(c1)OC/C(=C\c1ccc(Cl)cc1Cl)C2=O`: the result in the data set on HUVEC [1] was inactive. The Activity entry in the data set on HUVEC [2] and in the data set with HUVEC [3] was “Dose-dependent effect” each time.
